Measurements as given in patent US10968193B2, “Antidiabetic bicyclic compounds” (Merck Sharp & Dohme Corp., priority 2014, dated 2021).

Each compound was assayed against T1, human GPR40 (Homo sapiens, UniProt O14842) (assay: Inositol Phosphate Turnover (IP1) Assay 3). Details: HEK cells stably expressing human GPR40.
T1 construct: expressed in transfected cells; host or cells: HEK cells stably expressing the aequorin reporter
Format: cell-based
Summary of the method: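 HEK cells stably expressing human GPR40, plated 16 h before, were treated with compound for 60 min at 37 °C in stimulation buffer. IP1 measured by HTRF (665/620 nm ratio) against an IP1 standard curve; activity normalized to a reference compound, EC50 from 4-parameter fit.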

T1 sequence (O14842 whole entry): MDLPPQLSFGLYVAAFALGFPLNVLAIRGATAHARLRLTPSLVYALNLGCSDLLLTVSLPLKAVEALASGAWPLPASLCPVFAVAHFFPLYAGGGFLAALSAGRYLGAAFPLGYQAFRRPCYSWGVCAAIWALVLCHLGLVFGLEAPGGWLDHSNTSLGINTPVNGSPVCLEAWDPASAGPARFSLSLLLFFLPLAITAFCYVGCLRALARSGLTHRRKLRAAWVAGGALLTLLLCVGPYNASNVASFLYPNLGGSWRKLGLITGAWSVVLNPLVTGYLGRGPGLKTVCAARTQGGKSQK

`CCN(Cc1cc(C2CCc3ccc([C@H](C4CC4)[C@H](C)C(=O)O)cc3O2)ccc1-c1cc(OC)ncc1F)C(C)(C)C` (stereo partly drawn) [Example 228] was tested. Which EC50 did it give?
The EC50 was 0.12 nM.

With `COc1cc(-c2ccc(C3CCc4ccc([C@H](C5CC5)[C@H](C)C(=O)O)cc4O3)cc2CN(C(C)C)C(C)(C)C)c(F)cn1` (stereo partly drawn) [Example 229] as the compound, how does the EC50 read?
Its EC50 is 0.07 nM.

How did the EC50 turn out when `COc1cc(-c2ccc(C3CCc4ccc([C@H](C5CC5)[C@H](C)C(=O)O)cc4O3)cc2CN2C(C)(C)CCCC2(C)C)c(F)cn1` (stereo partly drawn) [Example 230] was run?
The EC50 was 0.09 nM.

For `COc1cc(-c2ccc(C3CCc4ccc([C@H](C5CC5)[C@H](C)C(=O)O)cc4O3)cc2CN2[C@@H](C)CCC[C@@H]2C)c(F)cn1` (stereo partly drawn) [Example 231], which EC50 is on record?
Its EC50 is 0.16 nM.

Which EC50 does the source give for `COc1cc(-c2ccc([C@@H]3CCc4ccc([C@H](C5CC5)[C@H](C)C(=O)O)cc4O3)cc2CNC(C)C)c(F)cn1` [Example 232] here?
The EC50 was 36 nM.

For `COc1cc(-c2ccc(C3CCc4ccc([C@H](C5CC5)[C@H](C)C(=O)O)cc4O3)cc2CNC(C)(C)C)c(F)cn1` (stereo partly drawn) [Example 233], which EC50 is on record?
Its EC50 is 42 nM.

For `COc1cc(-c2ccc(C3CCc4ccc([C@H](C5CC5)[C@H](C)C(=O)O)cc4O3)cc2CN(C)C(C)(C)C)ccn1` (stereo partly drawn) [Example 234], which EC50 is on record?
The EC50 was 21 nM.

`CCN(Cc1cc(C2CCc3ccc([C@H](C4CC4)[C@H](C)C(=O)O)cc3O2)ccc1-c1ccnc(OC)c1)C(C)(C)C` (stereo partly drawn) [Example 236] was tested. Which EC50 did it give?
Its EC50 is 1.3 nM.

With `COc1cc(-c2ccc(C3CCc4ccc([C@H](C5CC5)[C@H](C)C(=O)O)cc4O3)cc2CN(C(C)C)C(C)(C)C)ccn1` (stereo partly drawn) [Example 237] as the compound, how does the EC50 read?
The EC50 was 0.17 nM.

With `COc1cc(-c2ccc(C3CCc4ccc([C@H](C5CC5)[C@H](C)C(=O)O)cc4O3)cc2CN2C(C)(C)CCCC2(C)C)ccn1` (stereo partly drawn) [Example 238] as the compound, how does the EC50 read?
Its EC50 is 0.14 nM.

`COc1cc(-c2ccc(C3CCc4ccc([C@H](C5CC5)[C@H](C)C(=O)O)cc4O3)cc2CN2[C@H](C)CCC[C@@H]2C)ccn1` (stereo partly drawn) [Example 239] was tested. Which EC50 did it give?
Its EC50 is 1.1 nM.

For `COc1cc(-c2ccc(C3CCc4ccc([C@H](C5CC5)[C@H](C)C(=O)O)cc4O3)cc2CN2[C@H](C)CCC[C@H]2C)ccn1` (stereo partly drawn) [Example 240], which EC50 is on record?
The EC50 was 1.4 nM.

How did the EC50 turn out when `COc1cc(-c2ccc(C3CCc4ccc([C@H](C5CC5)[C@H](C)C(=O)O)cc4O3)cc2CN2[C@@H](C)CCC[C@@H]2C)ccn1` (stereo partly drawn) [Example 241] was run?
Its EC50 is 1.1 nM.

Which EC50 does the source give for `COc1cc(-c2ccc(C3CCc4ccc([C@H](C5CC5)[C@H](C)C(=O)O)cc4O3)cc2CN2CCCCC2(C)C)ccn1` (stereo partly drawn) [Example 242] here?
The EC50 was 3.1 nM.

How did the EC50 turn out when `COc1cc(-c2ccc(C3CCc4ccc([C@H](C5CC5)[C@H](C)C(=O)O)cc4O3)cc2CNC(C)C)ccn1` (stereo partly drawn) [Example 243] was run?
The EC50 was 810 nM.

`CCN(C)C(C)c1cc(C2CCc3ccc([C@H](C4CC4)[C@@H](C)C(=O)O)cc3O2)ccc1-c1cc(OC)ncc1F` (stereo partly drawn) [Example 246] was tested. Which EC50 did it give?
Its EC50 is 2.2 nM.

`COc1cc(-c2ccc(C3CCc4ccc([C@H](C5CC5)[C@H](C)C(=O)O)cc4O3)cc2C(C)N2CCCC2)ccn1` (stereo partly drawn) [Example 249] was tested. Which EC50 did it give?
The EC50 was 14.2 nM.

How did the EC50 turn out when `COc1cc(-c2ccc([C@@H]3CCc4ccc([C@H](C5CC5)[C@H](C)C(=O)O)cc4O3)cc2CN2CC3CC3C2)c(F)cn1` (stereo partly drawn) [Example 250, Sodium (2S,3R)-3-((2S)-2-(3-((3-azabicyclo[3.1.0]hexan-3-yl)methyl)-4-(5-fluoro-2-methoxypyridin-4-yl)phenyl)chroman-7-yl)-3-cyclopropyl-2-methylpropanoate] was run?
The EC50 was 0.19 nM.

For `COc1cc(-c2ccc(C3CCc4ccc([C@H](C5CC5)[C@H](C)C(=O)O)cc4O3)cc2CN2[C@H](C)CC[C@@H]2C)c(F)cn1` (stereo partly drawn) [Example 251], which EC50 is on record?
The EC50 was 0.3 nM.

For `COc1cc(-c2ccc(C3CCc4ccc([C@H](C5CC5)[C@H](C)C(=O)O)cc4O3)cc2CN2CCC3CC32)c(F)cn1` (stereo partly drawn) [Example 252], which EC50 is on record?
Its EC50 is 0.7 nM.

For `CCN(C)Cc1cc(C2CCc3ccc([C@H](C4CC4)[C@H](C)C(=O)O)cc3O2)ccc1-c1cc(OC)ncc1F` (stereo partly drawn) [Example 253], which EC50 is on record?
The EC50 was 0.9 nM.

How did the EC50 turn out when `COc1cc(-c2ccc(C3CCc4ccc([C@H](C5CC5)[C@H](C)C(=O)O)cc4O3)cc2CN(C)C(C)C)c(F)cn1` (stereo partly drawn) [Example 254] was run?
Its EC50 is 1 nM.

With `CCN(Cc1cc(C2CCc3ccc([C@H](C4CC4)[C@H](C)C(=O)O)cc3O2)ccc1-c1cc(OC)ncc1F)C(C)C` (stereo partly drawn) [Example 255] as the compound, how does the EC50 read?
The EC50 was 0.3 nM.

`COc1cc(-c2ccc(C3CCc4ccc([C@H](C5CC5)[C@H](C)C(=O)O)cc4O3)cc2CN2[C@H](C)CCC[C@H]2C)c(F)cn1` (stereo partly drawn) [Example 257] was tested. Which EC50 did it give?
The EC50 was 0.4 nM.

Which EC50 does the source give for `COc1cc(-c2ccc(C3CCc4ccc([C@H](C5CC5)[C@H](C)C(=O)O)cc4O3)cc2CN2[C@H](C)CCC[C@@H]2C)c(F)cn1` (stereo partly drawn) [Example 259] here?
The EC50 was 0.2 nM.

`COc1cc(-c2ccc(C3CCc4ccc([C@H](C5CC5)[C@H](C)C(=O)O)cc4O3)cc2CN2CCCC3(CC3)C2)c(F)cn1` (stereo partly drawn) [Example 260] was tested. Which EC50 did it give?
Its EC50 is 0.9 nM.

`COc1cc(-c2ccc(C3CCc4ccc([C@H](C5CC5)[C@H](C)C(=O)O)cc4O3)cc2CN2CCC3(CC2)CC3)c(F)cn1` (stereo partly drawn) [Example 261] was tested. Which EC50 did it give?
The EC50 was 0.6 nM.

`COc1cc(-c2ccc(C3CCc4ccc([C@H](C5CC5)[C@H](C)C(=O)O)cc4O3)cc2CN2CCCCC23CCC3)c(F)cn1` (stereo partly drawn) [Example 262] was tested. Which EC50 did it give?
The EC50 was 0.2 nM.

`COc1cc(-c2ccc(C3CCc4ccc([C@H](C5CC5)[C@H](C)C(=O)O)cc4O3)cc2CN2CCC3(CC3)C2)c(F)cn1` (stereo partly drawn) [Example 263] was tested. Which EC50 did it give?
The EC50 was 0.8 nM.

With `COc1cc(-c2ccc(C3CCc4ccc([C@H](C5CC5)[C@H](C)C(=O)O)cc4O3)cc2CN2CCCC23CCC3)c(F)cn1` (stereo partly drawn) [Example 264] as the compound, how does the EC50 read?
Its EC50 is 0.2 nM.

With `COc1cc(-c2ccc(C3CCc4ccc([C@H](C5CC5)[C@H](C)C(=O)O)cc4O3)cc2CN2CCCC23COC3)c(F)cn1` (stereo partly drawn) [Example 265] as the compound, how does the EC50 read?
Its EC50 is 0.2 nM.

With `COc1cc(-c2ccc(C3CCc4ccc([C@H](C5CC5)[C@H](C)C(=O)O)cc4O3)cc2CN2CCC(C)(C)C2)c(F)cn1` (stereo partly drawn) [Example 266] as the compound, how does the EC50 read?
The EC50 was 0.1 nM.

How did the EC50 turn out when `C[C@H](C(=O)O)[C@H](c1ccc2c(c1)OC(c1ccc(-c3cc(O)ncc3F)c(CN(C)C3CCOC3)c1)CC2)C1CC1` (stereo partly drawn) [Example 268a] was run?
Its EC50 is 0.6 nM.

`COc1cc(-c2ccc(C3CCc4ccc([C@H](C5CC5)[C@H](C)C(=O)O)cc4O3)cc2CN2C[C@H]3CC[C@@H]2C3)c(F)cn1` (stereo partly drawn) [Example 269] was tested. Which EC50 did it give?
The EC50 was 6.2 nM.

With `COc1cc(-c2ccc(C3CCc4ccc([C@H](C5CC5)[C@H](C)C(=O)O)cc4O3)cc2CN2C3CCCC2CC3)c(F)cn1` (stereo partly drawn) [Example 270] as the compound, how does the EC50 read?
Its EC50 is 0.9 nM.

With `COc1cc(-c2ccc(C3CCc4ccc([C@H](C5CC5)[C@H](C)C(=O)O)cc4O3)cc2CN2CCC(C#N)CC2)c(F)cn1` (stereo partly drawn) [Example 271] as the compound, how does the EC50 read?
Its EC50 is 2.6 nM.

How did the EC50 turn out when `COc1cc(-c2ccc(C3CCc4ccc([C@H](C5CC5)[C@H](C)C(=O)O)cc4O3)cc2CN2CCC(C(N)=O)CC2)c(F)cn1` (stereo partly drawn) [Example 272] was run?
The EC50 was 278 nM.

How did the EC50 turn out when `COc1cc(-c2ccc(C3CCc4ccc([C@H](C5CC5)[C@H](C)C(=O)O)cc4O3)cc2CN2[C@H](C)CC[C@H]2C)ccn1` (stereo partly drawn) [Example 274] was run?
The EC50 was 4.3 nM.

How did the EC50 turn out when `COc1cc(-c2ccc(C3CCc4ccc([C@H](C5CC5)[C@H](C)C(=O)O)cc4O3)cc2CN2[C@H](C)CC[C@@H]2C)ccn1` (stereo partly drawn) [Example 275] was run?
Its EC50 is 2.8 nM.

With `COc1cc(-c2ccc(C3CCc4ccc([C@H](C5CC5)[C@H](C)C(=O)O)cc4O3)cc2CN2CCCCC23CC3)ccn1` (stereo partly drawn) [Example 276] as the compound, how does the EC50 read?
The EC50 was 0.2 nM.

For `COc1cc(-c2ccc(C3CCc4ccc([C@H](C5CC5)[C@H](C)C(=O)O)cc4O3)cc2CN2CCCC3(CC3)C2)ccn1` (stereo partly drawn) [Example 277], which EC50 is on record?
The EC50 was 1.9 nM.

`COc1cc(-c2ccc(C3CCc4ccc([C@H](C5CC5)[C@H](C)C(=O)O)cc4O3)cc2CN2CCCC2)ccn1` (stereo partly drawn) [Example 278] was tested. Which EC50 did it give?
Its EC50 is 19 nM.
